# From the OPERA property sets (Mansouri et al. 2018)
# Details: not given
SMILES,boiling point,log10 vapour pressure (mmHg),melting point,ready biodegradability,log10 Koc (L/kg),log10 Henry constant (atm·m³/mol)
CC(C)CC1CCCCC1,171 °C,0.684,-95 °C,,,
OCCCCCCCCCO,,,45.8 °C,,,
CCCCCCCCCCCCOS(=O)(=O)[O-].[Na+],,,206 °C,,,
CCCc1ccco1,115 °C,,,,,
CCCCCCCCCCCCCCCCCCCCCCCCCCCCCCCCCCCCCC,512 °C,,,readily biodegradable,,
Nc1c(Cl)c(Cl)cc(Cl)c1Cl,,,107 °C,,3.94,
CCOC(=O)CCCCCC(=O)OCC,254 °C,-2.51,-24 °C,,,
C=C(C)C(=O)OC(C)C,125 °C,,,,,
CC(C)Nc1ccc(NC(C)C)c2c1C(=O)c1ccccc1C2=O,,,,not readily biodegradable,,
O=C(O)Cc1c(Cl)ccc(Cl)c1Cl,,,161 °C,,1.8,
COC(=O)[C@@H](N)Cc1ccc(O)cc1,,,137 °C,,,
O=C(O)C(F)(F)C(F)(F)C(F)(F)C(F)(F)C(F)(F)C(F)(F)C(F)(F)C(F)(F)C(F)(F)C(F)(F)C(F)(F)C(F)(F)C(F)(F)F,,,,not readily biodegradable,,
CC1=C(C(=O)O)N2C(=O)[C@@H](NC(=O)[C@H](N)C3=CCC=CC3)[C@H]2SC1,,,140 °C,,,
CCCCCCCCCCCCSCCC(=O)OCC(COC(=O)CCSCCCCCCCCCCCC)(COC(=O)CCSCCCCCCCCCCCC)COC(=O)CCSCCCCCCCCCCCC,,,,not readily biodegradable,,
CN(C)C(=O)Nc1cccc(Cl)c1,,,,,1.79,
CNC(=O)N(C)c1nnc(C(C)(C)C)s1,,-5.7,,,1.83,-9.92
C=CC(=O)NC(C)(C)CC(C)=O,,,57.5 °C,,,
O=C1C=CC(=Nc2ccc(O)cc2)C=C1,,,160 °C,,,
CCCCOC(=O)C(C)C,155 °C,,,,,
CC#CCCCCCCCC,204 °C,,-30.1 °C,,,
CCC(CC)C(=O)OCCOCCOCCOC(=O)C(CC)CC,,,,readily biodegradable,,
C=C[C@@H]1C2=CCOC(=O)C2=CO[C@H]1O[C@@H]1O[C@H](CO)[C@@H](O)[C@H](O)[C@H]1O,,,191 °C,,,
COc1ccccc1C=C(C(=O)O)c1ccccc1,,,158 °C,,,
O=Cc1cccs1,197 °C,,,,,

SMILES,boiling point,log10 vapour pressure (mmHg),melting point,ready biodegradability,log10 Koc (L/kg),log10 Henry constant (atm·m³/mol)
FC(F)(F)I,-22.5 °C,,,,,
CCN(C=O)CC,178 °C,0.0821,,,,
CCC(C)(C)CO,136 °C,,,,,
C[Si](C)(C)CCl,98.5 °C,,,,,
Nc1c(F)c(F)cc(F)c1F,158 °C,,31.5 °C,,,
CCCN(CCC)c1c([N+](=O)[O-])cc(S(N)(=O)=O)cc1[N+](=O)[O-],,,141 °C,not readily biodegradable,3.4,
O=CC[C@@H](O)C(O)[C@H](O)CO (stereo in doubt),,,146 °C,,,
CCC(C)C,,2.84,-160 °C,,,
C[C@]12CC[C@H]3[C@@H](CCC4=C(Cl)C(=O)CC[C@@]43C)[C@@H]1CC[C@@H]2O,,,189 °C,,,
O=C(Nc1ccc([N+](=O)[O-])cc1Cl)c1cc(Cl)ccc1O,,-10.8,230 °C,not readily biodegradable,3.35,
CC=C(Cl)CCl,130 °C,,,,,
C#CCC(C)C,61.2 °C,,-105 °C,,,
COc1ccccc1CCN,236 °C,,,,,
CCOC(=O)C(Cc1ccccc1)C(=O)OCC,300 °C,,,,,
C[Si](C)(C)CO,121 °C,,,,,
CNc1ccc(C(=O)O)cc1,,,,not readily biodegradable,,
CNC(=O)CSP(=O)(OC)OC,,-4.61,-28 °C,,,
Nc1ccc([N+](=O)[O-])c2c1C(=O)c1c(Cl)ccc(Cl)c1C2=O,,-12.4,307 °C,,,
Cc1ccccc1O,191 °C,-0.524,29.8 °C,readily biodegradable,,-5.92
CC(=O)C=Cc1ccccc1,262 °C,-1.91,41.8 °C,not readily biodegradable,,
NS(=O)(=O)c1ccc(S(=O)(=O)CCCO)c([N+](=O)[O-])c1,,,169 °C,,,
CCCCCCCCCCCCCCCCCCCCCCCCCC(=O)OC,,,63.8 °C,,,
OCc1c(Cl)cccc1Cl,,,98 °C,,,
Cn1c(=O)cc[nH]c1=O,,-3.15,,,,

SMILES,boiling point,log10 vapour pressure (mmHg),melting point,ready biodegradability,log10 Koc (L/kg),log10 Henry constant (atm·m³/mol)
Cc1ncc(CSSCc2cnc(C)c(O)c2CO)c(CO)c1O,,,219 °C,,,
CCc1c(C)[nH]c2c1C(=O)C(CN1CCOCC1)CC2 (centres undefined),,,180 °C,,,
FC(F)(F)C(F)(F)C(F)(F)C(F)(F)C(F)(F)C(F)(F)C(F)(F)C(F)(F)C(F)(F)F,123 °C,,-16 °C,,,
COc1ccc2c3c1O[C@H]1[C@@H](O)C=C[C@H]4[C@@H](C2)N(C)CC[C@@]341.Cl,,,280 °C,,,
O=C1CCCCC1=O,194 °C,,40 °C,,,
CC(=O)O.CC(=O)O.N=C(NCCCCCCNC(=N)NC(=N)Nc1ccc(Cl)cc1)NC(=N)Nc1ccc(Cl)cc1,,,154 °C,,,
O=C(c1ccccc1)C1CCC1,260 °C,,,,,
CCCCCCCCCCCC1CCCC1,296 °C,,-10 °C,,,
CCCC(CC)(CC)CC,166 °C,,,,,
c1ccc2oncc2c1,215 °C,,,,,
CCS(=O)CCSP(=O)(OC)OC (centres undefined),,-4.55,,,1,
C=CCC1(CC(=C)Br)C(=O)NC(=O)NC1=O,,,168 °C,,,
CCCF,2.5 °C,3.3,-159 °C,,,
CCCCCCCCCCCCCC(CCCCCCCCCC)CCCCCCCCCC,,,10.8 °C,,,
Cc1ccc(CO)c(C)c1,232 °C,,22 °C,,,
CC(C)C1(C)N=C(c2nc3ccccc3cc2C(=O)O)NC1=O (centres undefined),,,221 °C,not readily biodegradable,1.3,
CC#CCC(C)C,102 °C,,-92.9 °C,,,
Nc1cccc(Cl)c1C(=O)O,,,159 °C,,,
CCC(C)CC(C)C(C)C (centres undefined),161 °C,,,,,
Oc1ccc(/N=N/c2ccccc2)cc1,,-6.64,155 °C,,,
CC(=O)c1ccc(Cl)cc1,232 °C,,20 °C,,,
CC(=O)c1ccncc1,212 °C,,16 °C,,,-7.2
FC(F)C(F)(F)CBr,74 °C,,,,,
FC(F)(Br)C(F)(F)Br,47.3 °C,2.51,-110 °C,not readily biodegradable,,

SMILES,boiling point,log10 vapour pressure (mmHg),melting point,ready biodegradability,log10 Koc (L/kg),log10 Henry constant (atm·m³/mol)
OCCc1ccc(Cl)cc1,259 °C,,,,,
O=C1C=CC(=O)c2c(Cl)cccc21,,,163 °C,,,
CC(=O)Nc1ccc(CC(=O)O)cc1,,,173 °C,,,
O=[N+]([O-])c1ccsc1,225 °C,,78.5 °C,,,
O=S1(=O)OCC2C(CO1)C1(Cl)C(Cl)=C(Cl)C2(Cl)C1(Cl)Cl (centres undefined),,-6.55,182 °C,,,
CCN1CCCC1,104 °C,,,,,
CCC1(C)CCCCC1,152 °C,,,,,
CCC(C)OC (centres undefined),65 °C,2.32,-100 °C,,,
CCN(CC)CCOC(=O)C(c1ccccc1)c1ccccc1,,,114 °C,,,
CCCCCCCCCCOC(=O)CCCCCCCCC,,,9.7 °C,,,
BrCC(Br)(Br)CBr,,,10.5 °C,,,
CCOC(=O)CCCC(=O)OCC,236 °C,-0.793,-24.1 °C,,,
c1ccc(-c2ccc3ccccc3c2)cc1,346 °C,-4.46,104 °C,,,
CCCCCCCOC(=O)CCCCCCC,290 °C,,-10.6 °C,,,
C=C(C)OC,35 °C,2.71,,,,
CC(C)(C)CC(C)(C)N,140 °C,,,,,
C=CCCCCCCCCCCCCC,268 °C,-2.34,-2.8 °C,,,
CC(C)(C)c1cccc(C(C)(C)C)c1O,253 °C,,39 °C,not readily biodegradable,,
CC(C)[C@@H](C)C(=O)O,192 °C,,-1.5 °C,,,
CCOC(=O)c1ccc(F)cc1,210 °C,,26 °C,,,
CCCCCCCCCCSSCCCCCCCCCC,,,,not readily biodegradable,,

# Same assay, conditions: fish
SMILES,log10 biotransformation half-life (days),log10 BCF
CC(C)CC1CCCCC1,0.91,
Nc1c(Cl)c(Cl)cc(Cl)c1Cl,,2.52
CNc1ccc(C(=O)O)cc1,,0.38
Cc1ccccc1O,-0.52,1.03
OCc1c(Cl)cccc1Cl,-1.37,0.47
ClC1=C(Cl)C2(Cl)C3CC(Cl)(Cl)CC3C1(Cl)C2(Cl)Cl (centres undefined),2.23,4.3
Brc1cc(Br)c(Oc2c(Br)cc(Br)c(Br)c2Br)c(Br)c1Br,,5.3
